From patent US11091442B2, “Fluorosulfonyl-containing compound, intermediate thereof, preparation method therefor and use thereof” (SHANGHAI INSTITUTE OF ORGANIC CHEMISTRY, CHINESE ACADEMY OF …, priority 2017, dated 2021)
Several values for one entry are separate records, joined by “and”; a condition that tells them apart may be missing. Equal entries are not always repeated.

What was measured:
[1] = Stability in deionized water, 19F-NMR tracking of the S-F signal; assay type: physicochemical; conditions: for S-F signal of the solution: deionized water, room temperature
Protocol: This embodiment studies the stability of 1-(fluorosulfonyl)-2,3-dimethyl-1H-imidazolium trifluoromethanesulfonate in deionized water
The experimental method: 1-(fluorosulfonyl)-2,3-dimethyl-1H-imidazolium trifluoromethanesulfonate ([…], 0.1 mmol) was dissolved in deionized water (1 mL) at room temperature to prepare a solution, and the pH value of the obtained solution was measured to be pH=1, ^19F-NMR tracked the change of the S—F signal of the solution, and the results are shown in Table 3.

[2] = Thermal stability on a melting point meter; assay type: physicochemical; conditions: temperature set at 129-240° C., heating gradient 1.0° C./min
Protocol: This embodiment studies the melting range and thermal stability of 1-(fluorosulfonyl)-2,3-dimethyl-1H-imidazolium trifluoromethanesulfonate
Experimental method: On a melting point meter, the temperature was set at 30-70° C. and the heating gradient at 0.5° C./min, the melting range of the substance of the embodiment was measured to be 62.1-64.2° C.: the temperature was set at 129-240° C. and the heating gradient at 1.0° C./min, the substance slowly bubbled at 135.2° C., and then turned from colorless to pale yellow at 176.5° C., turned to yellow at 185.6° C., turned to dark yellow at 189.9° C., and finally turned to black at 199.4° C.

[3] = Stability in different humidity environments (sealed plastic bottles, 231 days of observation and testing); assay type: physicochemical; conditions: after 231 days
Protocol: This embodiment studies the stability of 1-(fluorosulfonyl)-2,3-dimethyl-1H-imidazolium trifluoromethanesulfonate in different humidity environments.
Experimental method: 1-(fluorosulfonyl)-2,3-dimethyl-1H-imidazolium trifluoromethanesulfonate was sampled (4.521 g, 4.298 g, 4.273 g) and placed into three plastic bottles (20 mL), which were then sealed with parafilm membrane. The three plastic bottles were placed on an experimental table (22° C.), in a refrigerator (4° C.) or in a dryer (22° C.).

| SMILES | melting point | also measured |
| --- | --- | --- |
| O=S(=O)(F)N1CCC(Cc2ccccc2)CC1 | 54 to 58 °C and 58 to 61 °C and 57 to 61 °C |  |
| O=S(=O)(F)N1CCC(c2ccccc2)CC1 | 83 to 84 °C |  |
| O=C(NC1CCN(S(=O)(=O)F)CC1)c1ccccc1 | 205 to 207 °C |  |
| COc1cc(C(=O)NC2CCCN(S(=O)(=O)F)C2)cc(OC)c1OC (centres unmarked) | 184 to 186 °C |  |
| O=S(=O)(F)N1CCN(S(=O)(=O)F)CC1 | 246 to 248 °C |  |
| CC(C)c1n(S(=O)(=O)F)cc[n+]1C.O=S(=O)([O-])C(F)(F)F | 77 to 80 °C |  |
| CN1CN(S(=O)(=O)F)c2ccccc21.O=S(=O)(O)C(F)(F)F | 121 to 125 °C |  |
| O=S(=O)(F)c1ccc(-c2ccc(S(=O)(=O)F)cc2)cc1 | 95.3 to 96.6 °C |  |
| COc1cc(/C=C/c2ccc(OS(=O)(=O)F)cc2)cc(OC)c1 | 80.1 to 81.1 °C |  |
| CC(=O)c1c(OS(=O)(=O)F)ccc2c(C)cc(=O)oc12 | 163.8 to 165.2 °C |  |
| Cc1ccc2c(Cl)cc(Cl)c(OS(=O)(=O)F)c2n1 | 64.6 to 66.2 °C |  |
| O=[N+]([O-])c1ccc(OS(=O)(=O)F)c2ncccc12 | 86.9 to 87.9 °C |  |
| COc1cc(C=O)ccc1OS(=O)(=O)F | 50.8 to 51.8 °C |  |
| Cc1n(S(=O)(=O)F)cc[n+]1C.O=S(=O)([O-])C(F)(F)F [Compound 4, 1-(fluorosulfonyl)-2,3-dimethyl-1H-imidazolium trifluoromethanesulfonate] | 58 to 60 °C | pH value of the obtained solution ([1]; 36 mg, 0.1 mmol dissolved in deionized water (1 mL) at room temperature): 1; S-F signal of the solution ([1]; standing time 12 min): 0.77; S-F signal of the solution ([1]; standing time 30 min): 0.58; S-F signal of the solution ([1]; standing time 58 min): 0.35; S-F signal of the solution ([1]; standing time 2 h): 0.11; S-F signal of the solution ([1]; standing time 2 h 46 min): 0.05; temperature at which the substance slowly bubbled [2]: 135.2 °C; temperature at which the substance turned from colorless to pale yellow [2]: 176.5 °C; temperature at which the substance turned to black [2]: 199.4 °C; temperature at which the substance turned to dark yellow [2]: 189.9 °C; temperature at which the substance turned to yellow [2]: 185.6 °C; S-F signal in 19F NMR spectrum decreased by ([3]; placed in the dryer (22° C.)): by 4%; S-F signal in 19F NMR spectrum decreased by ([3]; placed in the refrigerator (4° C.)): decreased by 1%; S-F signal in 19F NMR spectrum decreased by ([3]; placed on the experimental table (22° C.)): by 25% |

Continued, in another order:

| melting point | SMILES | also measured |
| --- | --- | --- |
| 53 to 57 °C | Cc1ccc(C2CCCN2S(=O)(=O)F)cc1 (centres unmarked) |  |
| 90 to 92 °C | O=S(=O)(F)NCCc1ccc(O)cc1 |  |
| 81 to 84 °C | CC(C)(C)OC(=O)[C@H](NS(=O)(=O)F)c1ccccc1 |  |
| 76 to 78 °C | O=S(=O)(F)N[C@@H]1CCC[C@H]1OCc1ccccc1 |  |
| 92.8 to 94.2 °C | O=C(/C=C/c1ccc(S(=O)(=O)F)cc1)c1ccccc1 |  |
| 150.3 to 152 °C | CC(=O)Nc1ccc(OS(=O)(=O)F)cc1 |  |
| 85.3 to 87.9 °C | O=c1ccc2cc(OS(=O)(=O)F)ccc2o1 |  |
